In brackets after ≈: the same amount, converted by molar mass. Several values for one entry are separate records, joined by “and”; a condition that tells them apart may be missing. Identical values can stand only once. Like-named read-outs stand apart in the source and are kept apart here.
Legend:
Tubulin [1] = experiment: Tubulin Assembly; format: biochemical, bovine; conditions: for Tubulin Assembly ED50/ED50 Taxol: ratio to taxol, <1 indicates greater activity than taxol; for Tubulin Assembly ED50 (concentration which reduces the supernatant protein concentration by 50%): tubulin 1 mg/ml, 37° C., 15 minutes, PEM buffer pH 6.9
Description: (§1) Tubulin binding and cytotoxicity data for cephalomannine and the synthetic derivatives described herein are included for comparison. The tubulin testing was done exactly as described by Himes (Georg, G. I., et al., "Synthesis of Biologically Active Taxol Analogues with Modified Phenylisoserine Side Chains", J. Med. Chem. Vol 35:4230, (1992)), incorporated herein by reference. Taxol has been included in Table 1 for reference. […] A number less than 1 in these columns indicates greater activity than taxol. A number greater than 1 in these columns indicates lower activity than taxol. The error in the tests appears to be ±10-20%. […] These tests have been used and relied upon by experimentalists in this field to determine the potential efficacy of a taxol derivative for the treatment of cancer.
Tubulin free of microtubule-associated proteins was purified from bovine brain as previously described (Algaier, J., Himes, R. H., "The Effect of Dimethyl Sulfoxide on the Kinetics of Tubulin Assembly" Biochim. Biophys. Acta, Vol 954, pp 235-243, 1988). The assembly reaction was done at 37° C. in PEM buffer (0.1M Pipes, pH 6.9, 1 mM EGTA, and 1 mM MgSO4) at a protein concentration of 1 mg/ml (10 μM) in the presence of taxol or taxol analogues and 0.5 mM GTP. The reaction was monitored by the increase in the apparent absorbance at 350 nm.
^b Tubulin at 1 mg/ml was incubated with various concentrations of th
compounds at 37° C. for 15 minutes in 0.5 ml of PEM buffer (0.1 M
Pipes, 1 mM EGTA, 1 mM MgSO4, pH 6.9). Samples were centrifuged and
the protein concentration on the supernatant was determined.
^d The concentration in ng/ml which reduces the supernatant protein

B16 Melanoma cells = experiment: cells; format: cell-based; conditions: for IC50: Mus musculus; for B16 Proliferation ED50/ED50 Taxol: ratio to taxol, <1 indicates greater activity than taxol
Description: as §1
Cells were seeded in 24-well plates at 7.5×10^4 cells/well and grown in Dulbecco's modified minimal essential medium (MEM) containing 10% bovine calf serum at 37° C. for 24 hours in a 97% humidified atmosphere of 5.5% CO2. The medium was then replaced with fresh medium containing taxol or its derivatives and dissolved in DMSO in concentrations ranging from 7.5×10^-9 M to 1×10^-7 M for taxol and other derivatives. The final concentration of DMSO in the cell medium was 0.5% or less. […] After 40 hours, the cells were released by trypsinization and counted in a Coulter counter.
^c B16 Melanoma cells were incubated with various concentrations of
the compounds for about 40h at 37° C.
^e The concentration in ng/ml which reduces the number of cells by 50

cell = conditions: when delivered to the cell; cited from earlier work
tubulin [2] = conditions: Schiff et al. 1979; cited from earlier work
tubulin [3] = conditions: compared with taxol, cited from earlier work
[4] = test system: taxol resistant tumor cells; conditions: compared with taxol; cited from earlier work
[5] = test system: P388 murine leukemia cells; conditions: compared with taxol; cited from earlier work
[6] = test system: mouse macrophage-like J774.2 cells; conditions: compared with taxol; cited from earlier work
[7] = B16, 40 h, B16 melanoma cells, about 40h at 37° C., read-out: B16 Proliferation ED50 (concentration which reduces the number of cells by 50% compared to a control)

## CC(=O)O[C@H]1C(=O)[C@@]2(C)[C@H]([C@H](OC(=O)c3ccccc3)[C@]3(O)C[C@H](OC(=O)[C@H](OC(C)=O)[C@@H](NC(=O)C(C)=O)c4ccccc4)C(C)=C1C3(C)C)[C@]1(OC(C)=O)CO[C@@H]1C[C@@H]2O [Compound 5, 240 -Acetyl-α-ketoamide]
Tubulin [1]
  Tubulin Assembly ED50/ED50 Taxol: > 10
  Tubulin Assembly ED50 (concentration which reduces the supernatant protein concentration by 50%): > 8.54 µg/mL
B16 Melanoma cells; B16 melanoma cells, about 40h at 37° C., read-out: B16 Proliferation ED50 (concentration which reduces the number of cells by 50% compared to a control)
  IC50: > 0.854 µg/mL
B16 Melanoma cells
  B16 Proliferation ED50/ED50 Taxol: > 38

## CC(=O)O[C@H]1C(=O)[C@@]2(C)[C@H]([C@H](OC(=O)c3ccccc3)[C@]3(O)C[C@H](OC(=O)[C@H](O)[C@@H](NC(=O)c4ccccc4)c4ccccc4)C(C)=C1C3(C)C)[C@]1(OC(C)=O)CO[C@@H]1C[C@@H]2O [Compound 1, taxol, reference compound]
cell
  cytotoxic activity: cytotoxic activity
Tubulin [2]
  tubulin binding: significant tubulin binding
Tubulin [1]
  Tubulin Assembly ED50/ED50 Taxol: 1.26
Tubulin [1]; listed as taxol
  Tubulin Assembly ED50/ED50 Taxol: approximately 1
Tubulin [1]; taxol reference value for the ratios (footnotes g, h, i), 15 min
  ED50 for taxol in the assembly assay: 0.854 µg/mL and 0.97 µg/mL and 0.85 µg/mL
B16 Melanoma cells; [7]
  IC50: 0.0214 µg/mL (≈ 0.0251 µM)
B16 Melanoma cells; B16, 40 h, taxol reference value for the ratios (footnotes g, h, i), read-out: ED50 for taxol in the B16 assay
  IC50: 0.0225 µg/mL
B16 Melanoma cells
  B16 Proliferation ED50/ED50 Taxol: 0.95
B16 Melanoma cells; taxol reference value for the ratios (footnotes g, h, i), 2400 min
  ED50 for taxol in the B16 assay: 0.0227 µg/mL

## CC(=O)O[C@H]1C(=O)[C@@]2(C)[C@H]([C@H](OC(=O)c3ccccc3)[C@]3(O)C[C@H](OC(=O)[C@H](O)[C@@H](NC(=O)C(C)(O)C(C)O)c4ccccc4)C(C)=C1C3(C)C)[C@]1(OC(C)=O)CO[C@@H]1C[C@@H]2O (some centres unmarked) [Compound 8, Cephalomannine diol]
Tubulin [1]
  Tubulin Assembly ED50/ED50 Taxol: 3.4
  Tubulin Assembly ED50 (concentration which reduces the supernatant protein concentration by 50%): 3.3 µg/mL
B16 Melanoma cells; [7]
  IC50: > 0.854 µg/mL
B16 Melanoma cells
  B16 Proliferation ED50/ED50 Taxol: > 38

## CC(=O)O[C@@]12CO[C@@H]1C[C@H](O)[C@@]1(C)C(=O)[C@H](O)C3=C(C)[C@@H](OC(=O)[C@H](O)[C@@H](NC(=O)OC(C)(C)C)c4ccccc4)C[C@@](O)([C@@H](OC(=O)c4ccccc4)[C@H]21)C3(C)C [Compound 2, taxotere]
Tubulin [3]
  activity as a promoter of tubulin polymerization vs taxol: slightly more active
Tubulin [3]; in vitro
  in vitro tubulin binding activity of taxotere: enhanced in vitro tubulin binding activity
[4]
  potency in taxol resistant tumor cells vs taxol: at least fivefold more potent
[5]
  potency as an inhibitor of replication vs taxol, P388 cells: 1.5 fold
[6]
  potency as an inhibitor of replication vs taxol, J774.2 cells: 1.5 fold

## CC[Si](CC)(CC)O[C@H]1C[C@H]2OC[C@@]2(OC(C)=O)[C@H]2[C@H](OC(=O)c3ccccc3)[C@]3(O)C[C@H](OC(=O)[C@H](O[Si](CC)(CC)CC)[C@@H](NC(=O)C(C)=O)c4ccccc4)C(C)=C([C@@H](OC(C)=O)C(=O)[C@]12C)C3(C)C [Compound 7, 2',7-Bis(triethylsilyl)-α-ketoamide]
Tubulin [1]
  Tubulin Assembly ED50/ED50 Taxol: > 10
  Tubulin Assembly ED50 (concentration which reduces the supernatant protein concentration by 50%): > 8.54 µg/mL
B16 Melanoma cells; [7]
  IC50: > 8.54 µg/mL
B16 Melanoma cells
  B16 Proliferation ED50/ED50 Taxol: > 380

## C/C=C(\C)C(=O)N[C@@H](c1ccccc1)[C@@H](O)C(=O)O[C@H]1C[C@@]2(O)[C@@H](OC(=O)c3ccccc3)[C@@H]3[C@]4(OC(C)=O)CO[C@@H]4C[C@H](O)[C@@]3(C)C(=O)[C@H](OC(C)=O)C(=C1C)C2(C)C [Compound 3, cephalomannine]
Tubulin [1]
  Tubulin Assembly ED50/ED50 Taxol: 0.82
B16 Melanoma cells; B16, 40 h, read-out: B16 Proliferation ED50 (concentration which reduces the number of cells by 50% compared to a control)
  IC50: 0.0335 µg/mL (≈ 0.0403 µM)
B16 Melanoma cells
  B16 Proliferation ED50/ED50 Taxol: 1.49

## CC(=O)O[C@H]1C(=O)[C@@]2(C)[C@H]([C@H](OC(=O)c3ccccc3)[C@]3(O)C[C@H](OC(=O)[C@H](O)[C@@H](NC(=O)C(C)=O)c4ccccc4)C(C)=C1C3(C)C)[C@]1(OC(C)=O)CO[C@@H]1C[C@@H]2O [Compound 4ab]
Tubulin [1]; compared to taxol
  activity in the in vitro tubulin assembly test relative to taxol: comparable to or superior to taxol
Tubulin [1]; in vitro testing
  tubulin binding activity: good
Tubulin [1]
  Tubulin Assembly ED50/ED50 Taxol: 1.46
  Tubulin Assembly ED50 (concentration which reduces the supernatant protein concentration by 50%): 1.24 µg/mL
B16 Melanoma cells; [7]
  IC50: 0.0171 µg/mL (≈ 0.0209 µM)
B16 Melanoma cells; compared to taxol
  activity in the B16 Proliferation test relative to taxol: comparable to or superior to taxol
B16 Melanoma cells; in vitro testing
  cytotoxicity activity: good
B16 Melanoma cells
  B16 Proliferation ED50/ED50 Taxol: 0.75

## CC(=O)O[C@H]1C(=O)[C@]2(C)[C@@H](OC(C)=O)C[C@H]3OC[C@@]3(OC(C)=O)[C@H]2[C@H](OC(=O)c2ccccc2)[C@]2(O)C[C@H](OC(=O)[C@H](OC(C)=O)[C@@H](NC(=O)C(C)=O)c3ccccc3)C(C)=C1C2(C)C [Compound 6, 2',7-bis(acetyl)-α-ketoamide]
Tubulin [1]
  Tubulin Assembly ED50/ED50 Taxol: > 10
  Tubulin Assembly ED50 (concentration which reduces the supernatant protein concentration by 50%): > 8.54 µg/mL
B16 Melanoma cells; [7]
  IC50: > 0.854 µg/mL
B16 Melanoma cells
  B16 Proliferation ED50/ED50 Taxol: > 38
